Results: patent EP2975030B1, “DIHYDROPYRIDAZINE-3,5-DIONE DERIVATIVE” (Chugai Seiyaku Kabushiki Kaisha, priority 2013, dated 2014)

Tested on: rat small-intestinal brush border membrane vesicles
Assay: Inhibitory effect on 33PO4 uptake into rat small-intestinal brush border membrane vesicles (rapid filtration method)
Assay type: biochemical, Wistar female rat
Conditions: 1 µM test compound; 33PO4 uptake into rat small-intestinal BBMVs, 60 seconds
Method: The ^33PO4 transport activity of the small-intestinal BBMVs was determined by the rapid filtration method. […] Then, ice-cold buffer C (110 mM NaCl, 1 mM KH2PO4, and 10 mM HEPES (pH 7.5)) was added to each reaction mixture, which was immediately suction-filtered through a Millipore filter. The filter was washed with buffer C, and each sample was then dissolved in a liquid scintillator. The amount of ^33PO4 uptake into BBMVs was measured using a liquid scintillation counter. […]

COc1cccc(-c2cc(C(F)(F)F)ccc2NC(=O)C2=C(O)[C@@]3(C)CCCN3N(Cc3ccc(OCc4ccncc4)c(F)c3F)C2=O)c1OC [Example 151, (4aR)-1-[[2,3-Difluoro-4-(pyridin-4-ylmethoxy)phenyl]methyl]-N-[2-(2,3-dimethoxyphenyl)-4-(trifluoromethyl)phenyl]-4-hydroxy-4a-methyl-2-oxo-6,7-dihydro-5H-pyrrolo[1,2-b]pyridazine-3-carboxamide]
Rate of uptake inhibition (%) (1 µM): 92%

C[C@]12CCCN1N(Cc1c(F)cc(OCCCCCCOC[C@@H](O)CO)cc1F)C(=O)C(C(=O)Nc1ccc(C(F)(F)F)cc1-c1ccc(C(F)(F)F)nc1)=C2O [Example 154]
Rate of uptake inhibition (%) (1 µM): 73%

CN1N(Cc2cccc(F)c2F)C(=O)C(C(=O)Nc2ccc(C(F)(F)F)nc2-c2ccc(C(F)(F)F)nc2)=C(O)C1(C)C [Example 304]
Rate of uptake inhibition (%) (1 µM): 51%

C[C@]12CCCN1N(Cc1ccccc1C#N)C(=O)C(C(=O)Nc1cc(F)c(Br)c(F)c1)=C2O [Example 218]
Rate of uptake inhibition (%) (1 µM): 82%

COCCN1CCN(CCOc2ccc(CN3C(=O)C(C(=O)Nc4ccc(C(F)(F)F)cc4-c4cc(C(F)(F)F)ncn4)=C(O)C4(CCCC4)N3C)c(F)c2F)CC1 [Example 377]
Rate of uptake inhibition (%) (1 µM): 29%

CN1N(Cc2cccc(F)c2F)C(=O)C(C(=O)Nc2ccc(C(F)(F)F)cc2-c2cncc(C(F)(F)F)c2)=C(O)C1(C)C [Example 305]
Rate of uptake inhibition (%) (1 µM): 66%

CC(=O)N(C)CCN(C)CCOc1ccc(CN2C(=O)C(C(=O)Nc3ccc(C(F)(F)F)cc3-c3cc(C(F)(F)F)ncn3)=C(O)C3(CCC3)N2C)c(F)c1F [Example 354]
Rate of uptake inhibition (%) (1 µM): 31%

C[C@]12CCCN1N(Cc1cccc(F)c1F)C(=O)C(C(=O)Nc1ccc(C(F)(F)F)cc1-c1cnc3ccccc3c1)=C2O [Example 83]
Rate of uptake inhibition (%) (1 µM): 90%

COc1cc(CN2C(=O)C(C(=O)Nc3ccc(C(F)(F)F)cc3-c3ccc(C(F)(F)F)nc3)=C(O)[C@@]3(C)CCCN23)cc(OC)c1 [Example 202]
Rate of uptake inhibition (%) (1 µM): 75%

(4aR)-1-[(2,3-Difluorophenyl)methyl]-4a-ethyl-4-hydroxy-N-[5-methyl-2-(trifluoromethyl)furan-3-yl]-2-oxo-6,7-dihydro-5H-pyrrolo[1,2-b]pyridazine-3-carboxamide [Example 10]
Rate of uptake inhibition (%) (1 µM): 37%

COC(=O)[C@@H]1CCCN1CCOc1ccc(CN2C(=O)C(C(=O)Nc3ccc(C(F)(F)F)cc3-c3cc(C(F)(F)F)ncn3)=C(O)C3(CCC3)N2C)c(F)c1F [Example 355]
Rate of uptake inhibition (%) (1 µM): 36%

C[C@]12CCCN1N(Cc1cccc(F)c1F)C(=O)C(C(=O)Nc1ccc(C(F)(F)F)cc1-c1cncc(C(F)(F)F)c1)=C2O [Example 91]
Rate of uptake inhibition (%) (1 µM): 87%

Cc1cc(NC(=O)C2=C(O)[C@H]3CCCCN3N(Cc3cccc(F)c3)C2=O)c(C(F)(F)F)o1 [Example 15, (4aR)-1-[(3-Fluorophenyl)methyl]-4-hydroxy-N-[5-methyl-2-(tritluoromethyl)furan-3-yl]-2-oxo-5,6,7,8-tetrahydro-4aH-pyrido[1,2-b]pyridazine-3-carboxamide]
Rate of uptake inhibition (%) (1 µM): 42%

COc1ccc(OC)c(CN2C(=O)C(C(=O)Nc3ccc(C(F)(F)F)cc3-c3ccc(C(F)(F)F)nc3)=C(O)[C@@]3(C)CCCN23)c1 [Example 176]
Rate of uptake inhibition (%) (1 µM): 75%

Cc1cccc(CN2C(=O)C(C(=O)Nc3ccc(C(F)(F)F)cc3-c3cc(C(F)(F)F)ncn3)=C(O)[C@@]3(C)CCCN23)c1F [Example 215]
Rate of uptake inhibition (%) (1 µM): 86%

COCCN1CC[C@@H](Oc2ccc(CN3C(=O)C(C(=O)Nc4ccc(C(F)(F)F)cc4-c4cc(C(F)(F)F)ncn4)=C(O)C4(CCC4)N3C)c(F)c2F)C1 [Example 405, 6-[[2,3-Difluoro-4-[(3R)-1-(2-methoxyethyl)pyrrolidin-3-yl]oxyphenyl]methyl]-9-hydroxy-5-methyl-7-oxo-N-[4-(trifluoromethyl)-2-[6-(trifluoromethyl)pyrimidin-4-yl)phenyl]-5,6-diazaspiro[3.5]non-8-ene-8-carboxamide]
Rate of uptake inhibition (%) (1 µM): 30%

C[C@]12CCCN1N(CCCC(F)(F)F)C(=O)C(C(=O)Nc1ccc(C(F)(F)F)cc1-c1cc(C(F)(F)F)ncn1)=C2O [Example 234, (4aR)-4-Hydroxy-4a-methyl-2-oxo-1-(4,4,4-trifluorobutyl)-N-[4-(trifluoromethyl)-2-[6-(trifluoromethyl)pyrimidin-4-yl]phenyl]-6,7-dihydro-5H-pyrrolo[1,2-b]pyridazine-3-carboxamide]
Rate of uptake inhibition (%) (1 µM): 73%

CN1N(Cc2ccc(OCCN3CCN(CCO)CC3)c(F)c2F)C(=O)C(C(=O)Nc2ccc(C(F)(F)F)cc2-c2cc(C(F)(F)F)ncn2)=C(O)C12CCC2 [Example 360]
Rate of uptake inhibition (%) (1 µM): 21%

CN(C)S(=O)(=O)c1ccc(-c2nc(C(F)(F)F)ccc2NC(=O)C2=C(O)[C@@]3(C)CCCN3N(Cc3cccc(F)c3F)C2=O)cc1 [Example 87]
Rate of uptake inhibition (%) (1 µM): 84%

COc1cccc(-c2cc(C(F)(F)F)ccc2NC(=O)C2=C(O)[C@@]3(C)CCCN3N(Cc3ccc(C#CCOCCOCCO)c(F)c3F)C2=O)c1OC [Example 139]
Rate of uptake inhibition (%) (1 µM): 88%

CN1N(Cc2ccc(OCCN3C4CCC3COC4)c(F)c2F)C(=O)C(C(=O)Nc2ccc(C(F)(F)F)cc2-c2cc(C(F)(F)F)ncn2)=C(O)C12CCC2 [Example 340]
Rate of uptake inhibition (%) (1 µM): 63%

C[C@]12CCCN1N(Cc1ccc(F)cc1F)C(=O)C(C(=O)Nc1cc(F)c(Br)c(F)c1)=C2O [Example 192]
Rate of uptake inhibition (%) (1 µM): 88%

C[C@]12CCCN1N(Cc1cccc(F)c1F)C(=O)C(C(=O)Nc1ccc(C(F)(F)F)cc1)=C2O [Example 89]
Rate of uptake inhibition (%) (1 µM): 67%

COC1(C)CN(CCOc2ccc(CN3C(=O)C(C(=O)Nc4ccc(C(F)(F)F)cc4-c4cc(C(F)(F)F)ncn4)=C(O)C4(CCC4)N3C)c(F)c2F)C1 [Example 356]
Rate of uptake inhibition (%) (1 µM): 58%

CN1N(Cc2ccc(OCCN3CCOCC3)c(F)c2F)C(=O)C(C(=O)Nc2ccc(C(F)(F)F)cc2-c2cc(C(F)(F)F)ncn2)=C(O)C12CCCCC2 [Example 295]
Rate of uptake inhibition (%) (1 µM): 21%

CN1N(Cc2ccc(OCCCCOC[C@H](O)CO)c(F)c2F)C(=O)C(C(=O)Nc2ccc(C(F)(F)F)cc2-c2ccc(C(F)(F)F)nc2)=C(O)C12CCC2 [Example 384]
Rate of uptake inhibition (%) (1 µM): 39%

C[C@]12CCCN1N(Cc1ccc(CCCCCCC(=O)O)c(F)c1F)C(=O)C(C(=O)Nc1ccc(Cl)cc1-c1ccc(C(F)(F)F)nc1)=C2O [Example 116, 7-[4-[[(4aR)-3-[[4-Chloro-2-[6-(trifluoromethyl)pyridin-3-yl]phenyl]carbamoyl]-4-hydroxy-4a-methyl-2-oxo-6,7-dihydro-5H-pyrrolo[1,2-b]pyridazin-1-yl]methyl]-2,3-difluorophenyl]heptanoate]
Rate of uptake inhibition (%) (1 µM): 72%

C[C@]12CCCN1N(Cc1cccc(Cl)c1)C(=O)C(C(=O)Nc1ccc(C(F)(F)F)cc1-c1ccc(C(F)(F)F)nc1)=C2O [Example 169]
Rate of uptake inhibition (%) (1 µM): 73%
